Measurements taken from PubChem BioAssay AID256 (DTP/NCI, 2004).
Several values for one entry are separate records, joined by “and”; a condition that tells them apart may be missing. Equal entries are not always repeated. Toxic doses and inconclusive results are not listed. The calls were made as follows: active = survival T/C of 150% or more; inactive = T/C below 125% in these data.

System: CD2F1 mice, L1210 leukemia ip, survival T/C
Assay: NCI In Vivo Anticancer Drug Screen. Data for tumor model L1210 Leukemia (intraperitoneal) in CD2F1 (CDF1) mice
Settings: higher = longer survival
Procedure, shortened: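 Antitumor effect is scored in animals hosting a serially transplanted tumor. Values compare compound-dosed animals against vehicle-only controls as a simple quotient.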

[1] = endpoint: mean survival time, dose: 100.0 mg/kg/injection, schedule: Q01DX001 (ip), vehicle: saline with Tween-80
[2] = endpoint: mean survival time, dose: 200.0 mg/kg/injection, schedule: Q01DX001 (ip), vehicle: saline with Tween-80
[3] = endpoint: mean survival time, dose: 400.0 mg/kg/injection, schedule: Q01DX001 (ip), vehicle: saline with Tween-80
[4] = endpoint: mean survival time, dose: 50.0 mg/kg/injection, schedule: Q01DX009 (ip), vehicle: saline with Tween-80
[5] = endpoint: mean survival time, dose: 100.0 mg/kg/injection, schedule: Q01DX009 (ip), vehicle: saline with Tween-80
[6] = endpoint: mean survival time, dose: 100.0 mg/kg/injection, schedule: Q04DX003 (ip), vehicle: saline with Tween-80
[7] = endpoint: mean survival time, dose: 200.0 mg/kg/injection, schedule: Q01DX009 (ip), vehicle: saline with Tween-80
[8] = endpoint: mean survival time, dose: 200.0 mg/kg/injection, schedule: Q04DX003 (ip), vehicle: saline with Tween-80
[9] = endpoint: mean survival time, dose: 12.5 mg/kg/injection, schedule: Q01DX009 (ip), vehicle: saline
[10] = endpoint: mean survival time, dose: 25.0 mg/kg/injection, schedule: Q01DX009 (ip), vehicle: saline
[11] = endpoint: mean survival time, dose: 400.0 mg/kg/injection, schedule: Q01DX009 (ip), vehicle: saline with Tween-80
[12] = endpoint: mean survival time, dose: 50.0 mg/kg/injection, schedule: Q01DX009 (ip), vehicle: Klucel (hydroxypropylcellulose) (HPC)
[13] = endpoint: mean survival time, dose: 100.0 mg/kg/injection, schedule: Q01DX009 (ip), vehicle: Klucel (hydroxypropylcellulose) (HPC)
[14] = endpoint: mean survival time, dose: 200.0 mg/kg/injection, schedule: Q01DX009 (ip), vehicle: Klucel (hydroxypropylcellulose) (HPC)

Measured: T/C

CC(=O)N(O)CCCCCNC(=O)CCC(=O)N(O)CCCCCNC(=O)CCC(=O)N(O)CCCCCN
inactive: endpoint: mean survival time, dose: 125.0 mg/kg/injection, schedule: Q03HX024 (ip), vehicle: water 102 % of control | endpoint: mean survival time, dose: 188.0 mg/kg/injection, schedule: Q03HX024 (ip), vehicle: water 97 % of control | endpoint: mean survival time, dose: 280.0 mg/kg/injection, schedule: Q03HX024 (ip), vehicle: water 104 % of control

CCOP(=O)(N=S=O)OCC
inactive: endpoint: mean survival time, dose: 12.5 mg/kg/injection, schedule: Q04DX003 (ip), vehicle: saline 100 % of control | endpoint: mean survival time, dose: 25.0 mg/kg/injection, schedule: Q04DX003 (ip), vehicle: saline 103 % of control | endpoint: mean survival time, dose: 50.0 mg/kg/injection, schedule: Q04DX003 (ip), vehicle: saline 113 % of control

O=c1cc[nH]c(=S)[nH]1.[Pt]
inactive: endpoint: mean survival time, dose: 3.13 mg/kg/injection, schedule: Q04DX003 (ip), vehicle: distilled water + Tween-80 94 % of control | endpoint: mean survival time, dose: 6.25 mg/kg/injection, schedule: Q04DX003 (ip), vehicle: distilled water + Tween-80 97 % of control | endpoint: mean survival time, dose: 12.5 mg/kg/injection, schedule: Q04DX003 (ip), vehicle: distilled water + Tween-80 94 % of control | endpoint: mean survival time, dose: 25.0 mg/kg/injection, schedule: Q04DX003 (ip), vehicle: distilled water + Tween-80 97 % of control | endpoint: mean survival time, dose: 50.0 mg/kg/injection, schedule: Q04DX003 (ip), vehicle: distilled water + Tween-80 97 % of control | endpoint: mean survival time, dose: 100.0 mg/kg/injection, schedule: Q04DX003 (ip), vehicle: distilled water + Tween-80 103 % of control | endpoint: mean survival time, dose: 200.0 mg/kg/injection, schedule: Q04DX003 (ip), vehicle: distilled water + Tween-80 102 % of control

C[SeH]C.C[SeH]C.O.O=S(=O)(O)O.[Pt]
inactive: endpoint: mean survival time, dose: 12.5 mg/kg/injection, schedule: Q04DX003 (ip), vehicle: other 89 % of control | endpoint: mean survival time, dose: 25.0 mg/kg/injection, schedule: Q04DX003 (ip), vehicle: other 101 % of control | endpoint: mean survival time, dose: 50.0 mg/kg/injection, schedule: Q04DX003 (ip), vehicle: other 103 % of control | endpoint: mean survival time, dose: 100.0 mg/kg/injection, schedule: Q04DX003 (ip), vehicle: other 107 % of control

CCOc1cccc(Cc2cn(Cc3cccc(NC(=O)Nc4ccc(S(=O)(=O)F)cc4)c3)c(=O)[nH]c2=O)c1
inactive: [1] 86 % of control | [2] 92 % of control | [3] 86 % of control

Nc1nc2ccccc2c2c1C(=O)NC2=O
inactive: [4] 103 % of control | [5] 100 % of control | [6] 95 % of control | [7] 96 % of control | [8] 91 % of control

[C-]#[N+]C(C)(CC)c1ccccc1 (centres undefined)
inactive: endpoint: mean survival time, dose: 35.0 mg/kg/injection, schedule: Q01DX009 (ip), vehicle: saline with Tween-80 105 % of control

COc1ccc(NC(=O)Oc2ccc(Cl)cc2Cl)cc1
inactive: endpoint: mean survival time, dose: 25.0 mg/kg/injection, schedule: Q01DX009 (ip), vehicle: saline with Tween-80 112 % of control | endpoint: mean survival time, dose: 25.0 mg/kg/injection, schedule: Q04DX002 (ip), vehicle: saline with Tween-80 100 % of control | [4] 112 % of control | endpoint: mean survival time, dose: 50.0 mg/kg/injection, schedule: Q04DX002 (ip), vehicle: saline with Tween-80 100 % of control | [5] 101 % of control | endpoint: mean survival time, dose: 100.0 mg/kg/injection, schedule: Q04DX002 (ip), vehicle: saline with Tween-80 95 % of control and 98 % of control | endpoint: mean survival time, dose: 400.0 mg/kg/injection, schedule: Q04DX002 (ip), vehicle: saline with Tween-80 102 % of control

O=C1c2ccccc2C(=O)N1CCc1c[nH]c2ccccc12
inactive: [1] 102 % of control | [2] 104 % of control | [3] 104 % of control

Cc1cccc(N)n1 (tested in a mixture with another compound)
inactive: [9] 104 % of control | [10] 101 % of control | endpoint: mean survival time, dose: 50.0 mg/kg/injection, schedule: Q01DX009 (ip), vehicle: saline 96 % of control

Nc1cc(Cl)ccc1C(=O)O
inactive: [5] 103 % of control | [7] 104 % of control | [11] 86 % of control

COc1ccc2c(NCCCCCCCCNc3c4ccccc4nc4cc(OC)ccc34)c3ccccc3nc2c1
inactive: endpoint: mean survival time, dose: 0.47 mg/kg/injection, schedule: Q01DX009 (ip), vehicle: distilled water + alcohol 116 % of control | endpoint: mean survival time, dose: 0.94 mg/kg/injection, schedule: Q01DX009 (ip), vehicle: distilled water + alcohol 120 % of control and 112 % of control | endpoint: mean survival time, dose: 1.87 mg/kg/injection, schedule: Q01DX009 (ip), vehicle: distilled water + alcohol 120 % of control | endpoint: mean survival time, dose: 1.88 mg/kg/injection, schedule: Q01DX009 (ip), vehicle: distilled water + alcohol 113 % of control and 112 % of control | endpoint: median survival time, dose: 0.5 mg/kg/injection, schedule: Q01DX009 (ip), vehicle: distilled water + alcohol 120 % of control | endpoint: median survival time, dose: 1.0 mg/kg/injection, schedule: Q01DX009 (ip), vehicle: distilled water + alcohol 118 % of control | endpoint: median survival time, dose: 2.0 mg/kg/injection, schedule: Q01DX009 (ip), vehicle: distilled water + alcohol 121 % of control | endpoint: median survival time, dose: 4.0 mg/kg/injection, schedule: Q01DX009 (ip), vehicle: distilled water + alcohol 124 % of control

CCCCCCCCCCCCCC[N+]1(CC)CCCCC1
inactive: endpoint: mean survival time, dose: 0.12 mg/kg/injection, schedule: Q01DX009 (ip), vehicle: saline 100 % of control | endpoint: mean survival time, dose: 0.39 mg/kg/injection, schedule: Q01DX009 (ip), vehicle: saline 103 % of control | endpoint: mean survival time, dose: 0.78 mg/kg/injection, schedule: Q01DX009 (ip), vehicle: saline 106 % of control | endpoint: mean survival time, dose: 1.56 mg/kg/injection, schedule: Q01DX009 (ip), vehicle: saline 97 % of control

N#CCCN(C(=S)Nc1cccc(C(F)(F)F)c1)C1CCCCC1
inactive: endpoint: mean survival time, dose: 12.5 mg/kg/injection, schedule: Q01DX009 (ip), vehicle: Klucel (hydroxypropylcellulose) (HPC) 92 % of control | endpoint: mean survival time, dose: 25.0 mg/kg/injection, schedule: Q01DX009 (ip), vehicle: Klucel (hydroxypropylcellulose) (HPC) 97 % of control | [12] 98 % of control | [13] 98 % of control | [14] 98 % of control | endpoint: mean survival time, dose: 400.0 mg/kg/injection, schedule: Q01DX009 (ip), vehicle: Klucel (hydroxypropylcellulose) (HPC) 101 % of control | endpoint: median survival time, dose: 100.0 mg/kg/injection, schedule: Q01DX009 (ip), vehicle: Klucel (hydroxypropylcellulose) (HPC) 101 % of control | endpoint: median survival time, dose: 200.0 mg/kg/injection, schedule: Q01DX009 (ip), vehicle: Klucel (hydroxypropylcellulose) (HPC) 103 % of control | endpoint: median survival time, dose: 400.0 mg/kg/injection, schedule: Q01DX009 (ip), vehicle: Klucel (hydroxypropylcellulose) (HPC) 104 % of control

COC(CCN1C(=O)c2ccccc2C1=O)C(Br)C(=O)O (centres undefined)
inactive: [5] 92 % of control | [6] 101 % of control | [7] 92 % of control | [8] 97 % of control | [11] 89 % of control | endpoint: mean survival time, dose: 400.0 mg/kg/injection, schedule: Q04DX003 (ip), vehicle: saline with Tween-80 98 % of control

C=C(C)C(=O)O[C@H]1[C@H]2[C@H](OC(=O)[C@H]2C)[C@H](O)[C@@H](C)[C@@H]2C=CC(=O)[C@]21C
inactive: endpoint: mean survival time, dose: 3.13 mg/kg/injection, schedule: Q01DX009 (ip), vehicle: saline 91 % of control | endpoint: mean survival time, dose: 6.25 mg/kg/injection, schedule: Q01DX009 (ip), vehicle: saline 95 % of control | endpoint: mean survival time, dose: 7.5 mg/kg/injection, schedule: Q01DX009 (ip), vehicle: saline 102 % of control | [9] 93 % of control | endpoint: mean survival time, dose: 15.0 mg/kg/injection, schedule: Q01DX009 (ip), vehicle: saline 103 % of control | [10] 108 % of control | endpoint: mean survival time, dose: 30.0 mg/kg/injection, schedule: Q01DX009 (ip), vehicle: saline 102 % of control

O=C(/C=C/c1ccc(Cl)c(Cl)c1)/C=C/c1ccc(Cl)c(Cl)c1
inactive: [12] 98 % of control | [13] 94 % of control | [14] 90 % of control
